From article PMC10745882, “Investigation of Drug-Interaction Potential for Arthritis Dietary Supplements: Chondroitin Sulfate, Glucosamine, and Methylsulfonylmethane” (Molecules, 2023)

Key:
CYP2A6 = molecular target: T1, CYP2A6 (Homo sapiens, UniProt P11509); test: CYP inhibition assay in human liver microsomes (LC-MS/MS cocktail), coumarin to 7-OH-coumarin; type: in vitro ADME
T1 construct: Pooled human liver microsomes were purchased from BD Gentest; tissue BD Gentest; host or cells: pooled human liver microsomes
T1 sequence (P11509 1-494): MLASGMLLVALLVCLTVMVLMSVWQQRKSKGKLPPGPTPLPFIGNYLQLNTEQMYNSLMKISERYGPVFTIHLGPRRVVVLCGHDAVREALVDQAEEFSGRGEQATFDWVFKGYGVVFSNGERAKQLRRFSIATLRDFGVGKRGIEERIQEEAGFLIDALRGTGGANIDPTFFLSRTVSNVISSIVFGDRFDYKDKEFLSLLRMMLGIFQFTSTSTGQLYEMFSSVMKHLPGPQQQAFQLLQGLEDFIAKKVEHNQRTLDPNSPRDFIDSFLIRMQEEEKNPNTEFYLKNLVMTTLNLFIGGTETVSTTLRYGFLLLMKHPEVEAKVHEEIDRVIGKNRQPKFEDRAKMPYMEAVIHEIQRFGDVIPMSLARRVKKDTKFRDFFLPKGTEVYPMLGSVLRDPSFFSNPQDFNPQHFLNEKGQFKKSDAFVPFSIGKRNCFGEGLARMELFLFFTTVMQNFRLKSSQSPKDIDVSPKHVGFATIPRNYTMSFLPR
Experimental: (§1) For the experimental method, the reference method was used. Briefly, incubation mixtures were composed of 0.5 mg/mL human liver microsomes; varying concentrations of CS in DW (0.1, 0.3, 1, 3, 10, 30, 100, and 200 µM) or MSM in DW (0.1, 0.3, 1, 3, 10, 30, 100, 300, and 1000 µM) or GCS in DMSO (0.1, 0.3, 1, 3, 10, 30, 100, 300, and 1000 µM); a substrate mixture in DMSO (40 µM phenacetin for CYP1A2; 2.5 µM coumarin for CYP2A6; 80 µM bupropion for CYP2B6; 10 µM diclofenac for CYP2C9; 80 µM [±]-mephenytoin for CYP2C19; 5 µM dextromethorphan for CYP2D6; 2.5 µM midazolam and 30 µM testosterone for CYP3A4); and an NADPH generating system (NGS; 0.1 M glucose-6-phosphate, 10 mg/mL β-NADP^+, and 1 U/mL glucose-6-phosphate dehydrogenase) in a total volume of 200 µL potassium phosphate buffer (0.1 M, pH 7.4). The reaction mixture, excluding NGS, underwent pre-incubation at 37 °C for 5 min, followed by further incubation with NGS for 30 min in a water bath. Well-established selective CYP inhibitors were employed as positive controls (40 µM ketoconazole for CYP3A4, 50 µM furafyllin for CYP1A2, 10 µM quinidine for CYP2D6, 125 µM ticlopidine for CYP2C19 and CYP2B6, 10 µM 8-methoxsalen for CYP2A6, and 10 µM sulfaphenazole for CYP2C9). Post incubation, the reaction was halted by adding 50 µL ice-cold 1% formic acid acetonitrile. After centrifugation at 13,200 rpm for 5 min, the supernatant was collected from the sample and subjected to analysis via an LC-MS/MS system. All experiments were performed in triplicate.
(§2) For the experimental method, the reference method was used. The LC-MS/MS system utilized in this study consisted of an Agilent 1260 binary pump HPLC system coupled with the Agilent 6460 Triple Quadrupole mass spectrometer (Agilent Technologies, Santa Clara, CA, USA), featuring an electrospray ionization source. Chromatographic separation was achieved using a Fortis C8 column (2.1 × 100 mm, 5.0 µm; Fortis Technologies Ltd., Neston, UK). The HPLC mobile phases comprised (A) 0.1% formic acid and (B) 0.1% formic acid in 90% acetonitrile. A gradient elution method was employed with an initial solvent B concentration of 15% and a flow rate of 0.25 mL/min. […] The total run time was 11.0 min, and the injection volume was 5 µL. Mass detection was conducted in the positive ion mode using multiple reaction monitoring (MRM). Specific MRM transitions for each analyte are detailed in Table S4.

CYP2C19 = molecular target: T2, CYP2C19 (Homo sapiens, UniProt P33261); test: CYP inhibition assay in human liver microsomes (LC-MS/MS cocktail), mephenytoin to 4-OH-mephenytoin; type: in vitro ADME
T2 construct: Pooled human liver microsomes were purchased from BD Gentest; tissue BD Gentest; host or cells: pooled human liver microsomes
Experimental: as §1, §2

[1] = system: seven CYP isozymes (CYP1A2, CYP2A6, CYP2B6, CYP2C9, CYP2C19, CYP2D6, CYP3A4); test: CYP inhibition assay in human liver microsomes, statements on all tested isozymes; type: in vitro ADME
Experimental: as §1
For the experimental method, the reference method was used. The LC-MS/MS system utilized in this study consisted of an Agilent 1260 binary pump HPLC system coupled with the Agilent 6460 Triple Quadrupole mass spectrometer (Agilent Technologies, Santa Clara, CA, USA), featuring an electrospray ionization source. Chromatographic separation was achieved using a Fortis C8 column (2.1 × 100 mm, 5.0 µm; Fortis Technologies Ltd., Neston, UK). The HPLC mobile phases comprised (A) 0.1% formic acid and (B) 0.1% formic acid in 90% acetonitrile. […]

[2] = set-up: method as in doi:10.4172/2155-9600.1000748, PMID 16168682, PMID 19912983; conditions: common daily dose 1500 mg/day; cited from earlier work
CYP2D6 = molecular target: T3, CYP2D6 (Homo sapiens, UniProt P10635); set-up: method as in PMID 34821124, PMID 29488228; conditions: previous studies; cited from earlier work
T3 construct: Pooled human liver microsomes were purchased from BD Gentest; tissue BD Gentest; host or cells: pooled human liver microsomes

CYP2C9 = system: CYP2C9; set-up: method as in PMID 34821124, PMID 29488228; conditions: previous studies; cited from earlier work
[3] = cited from earlier work
[4] = set-up: method as in PMID 16942821, PMID 37489348, PMID 31331587; conditions: typical doses as monotherapy; cited from earlier work

T2 sequence (P33261 whole entry): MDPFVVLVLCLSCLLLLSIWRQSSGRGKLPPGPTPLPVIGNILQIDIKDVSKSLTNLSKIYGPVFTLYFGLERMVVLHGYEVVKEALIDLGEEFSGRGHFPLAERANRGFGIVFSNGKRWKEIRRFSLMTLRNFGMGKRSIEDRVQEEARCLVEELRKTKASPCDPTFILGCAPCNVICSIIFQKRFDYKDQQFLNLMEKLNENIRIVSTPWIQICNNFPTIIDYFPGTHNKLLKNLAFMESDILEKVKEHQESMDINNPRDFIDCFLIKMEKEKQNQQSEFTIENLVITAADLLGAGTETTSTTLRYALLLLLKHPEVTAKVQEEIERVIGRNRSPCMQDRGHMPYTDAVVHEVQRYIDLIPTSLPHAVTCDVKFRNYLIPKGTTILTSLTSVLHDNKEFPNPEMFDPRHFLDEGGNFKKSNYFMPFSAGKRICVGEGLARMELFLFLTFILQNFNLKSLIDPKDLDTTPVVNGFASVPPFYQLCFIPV
T3 sequence (P10635 whole entry): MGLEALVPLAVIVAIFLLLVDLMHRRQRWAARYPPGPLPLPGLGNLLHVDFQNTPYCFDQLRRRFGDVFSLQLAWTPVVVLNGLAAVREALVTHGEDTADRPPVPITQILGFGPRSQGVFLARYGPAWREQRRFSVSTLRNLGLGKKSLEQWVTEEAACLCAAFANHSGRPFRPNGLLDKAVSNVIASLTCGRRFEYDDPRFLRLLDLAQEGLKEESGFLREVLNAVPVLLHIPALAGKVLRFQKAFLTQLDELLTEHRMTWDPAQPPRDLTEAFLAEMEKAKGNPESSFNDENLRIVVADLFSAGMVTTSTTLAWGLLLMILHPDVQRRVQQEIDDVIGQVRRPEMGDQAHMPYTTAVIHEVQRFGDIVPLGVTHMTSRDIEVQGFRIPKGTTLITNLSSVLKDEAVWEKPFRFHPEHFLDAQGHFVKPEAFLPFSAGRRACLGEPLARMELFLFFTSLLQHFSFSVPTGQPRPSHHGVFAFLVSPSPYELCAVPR

Remaining Activities (% of Control, n = 3) (CYP2A6; test substance 0.3 μM): 107.6 ± 5.2 % of Control | Remaining Activities (% of Control, n = 3) (CYP2A6; test substance 1 μM): 105.3 ± 0.4 % of Control | Remaining Activities (% of Control, n = 3) (CYP2A6; test substance 3 μM): 106.2 ± 2.3 % of Control | Remaining Activities (% of Control, n = 3) (CYP2A6; test substance 10 μM): 101.5 ± 1.4 % of Control | Remaining Activities (% of Control, n = 3) (CYP2A6; test substance 30 μM): 102.1 ± 2.5 % of Control | Remaining Activities (% of Control, n = 3) (CYP2A6; test substance 100 μM): 103.4 ± 2.7 % of Control | Remaining Activities (% of Control, n = 3) (CYP2A6; test substance 300 μM): 97.9 ± 0.4 % of Control | Remaining Activities (% of Control, n = 3) (CYP2A6; test substance 1000 μM): 94.1 ± 7.3 % of Control | Remaining Activities (% of Control, n = 3) (CYP2C19; test substance 0.3 μM): 128.4 ± 27.9 % of Control | Remaining Activities (% of Control, n = 3) (CYP2C19; test substance 1 μM): 102.5 ± 3.0 % of Control | Remaining Activities (% of Control, n = 3) (CYP2C19; test substance 3 μM): 102.6 ± 8.8 % of Control | Remaining Activities (% of Control, n = 3) (CYP2C19; test substance 10 μM): 101.9 ± 4.3 % of Control | Remaining Activities (% of Control, n = 3) (CYP2C19; test substance 30 μM): 90.5 ± 8.7 % of Control | Remaining Activities (% of Control, n = 3) (CYP2C19; test substance 100 μM): 100.3 ± 3.7 % of Control | Remaining Activities (% of Control, n = 3) (CYP2C19; test substance 300 μM): 95.5 ± 5.6 % of Control | Remaining Activities (% of Control, n = 3) (CYP2C19; test substance 1000 μM): 88.7 ± 7.3 % of Control | inhibitory effects on CYP1A2, CYP2A6, CYP2B6, CYP2C9, CYP2C19, CYP2D6, and CYP3A4 [1]: no inhibitory effects
SMILES: N[C@H]1C(O)O[C@H](CO)[C@@H](O)[C@@H]1O (some centres unmarked) [GCS, glucosamine]
maximum plasma concentrations [2]: ~9 µM | inhibitory effects on CYP2D6 (CYP2D6): no inhibitory effects | inhibitory effects on CYP2C9 (CYP2C9): no inhibitory effects | cases of INR elevation when coumarin anticoagulants were combined with GCS ([3]; EFSA scientific opinion): 40 cases | INR on co-administration with warfarin ([3]; interaction case, co-administration of CS and GCS with warfarin): elevated INR | adverse effects in clinical trials [4]: do not exhibit significant adverse effects
